Assay results reported in article PMC7504721, “Targeting the Initiator Protease of the Classical Pathway of Complement Using Fragment-Based Drug Discovery” (Molecules, 2020).

Target: T1, C1r-CUB1 (Homo sapiens, UniProt P00736)
T1 construct: The C1r-CUB1 construct corresponds to C1r residues 18–141; made in house; host or cells: E. coli BL21 (DE3)
T1 sequence (P00736 18-141): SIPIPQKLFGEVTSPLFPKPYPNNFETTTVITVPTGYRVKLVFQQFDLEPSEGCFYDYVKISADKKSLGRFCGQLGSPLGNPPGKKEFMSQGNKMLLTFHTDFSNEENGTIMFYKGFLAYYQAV
Experiment: SPR domain mapping, C1r-CUB1 surface
Assay type: binding
Settings: duplicate
From the text: Figure 5 Selectivity and mechanistic analysis of CMP-1611 and CMP-1696. (A) Chemical structure of CMP-1611. (B) Chemical structure of CMP-1696. (C) Dose-dependent inhibition by CMP-1611 and CMP-1696 in a classical pathway-specific ELISA. Data were fit with GraphPad Prism using non-linear regression with a log(inhibitor) vs. response model. […] The CMP-778 inhibitory response could not be fit to a dose-response inhibition model. (D) Complement pathway selectivity of CMP-1611 and CMP-1696. Compounds were assessed for their ability to inhibit activation of complement via the lectin and alternative pathways using single doses of 500 μM compound in triplicate. To ensure only lectin pathway activation, 2% (v/v) C1q-depleted serum (CompTech) was used and mannan was used as the activator. To match serum sources and amounts for this assay, the classical pathway assays were repeated here using serum from CompTech at 2% (v/v) final concentration. Alternative pathway activation assays were performed using 20% (v/v) serum (CompTech), alternative pathway buffers, and C3b detection (see Methods and Materials for details). […] (E) C1r, C1r-CUB1, and C1r-CCP2-SP, were immobilized on an SPR sensor chip and binding responses for 500 μM CMP-1611 and CMP-1696 or 10 μM Futhan were each injected in duplicate over all surfaces. Binding responses were corrected for the molecular weight of each analyte and the immobilization level and molecular weight of each surface ligand. Measures of statistical significance in (D) were obtained by comparison of vehicle control using an unpaired t-test (* p < 0.05). To assess selectivity of CMP-1611 and CMP-1696, we performed pathway-specific ELISA-based inhibition assays. […] However, CMP-1696, but not CMP-1611, blocked lectin pathway activation at a similar level as it did the classical pathway (Figure 5D). To further investigate the divergent selectivity profiles of CMP-1611 and CMP-1696, we first sought to clarify the binding site on C1r for each compound. […] We then injected each compound simultaneously over the three surfaces at 500 μM and measured binding responses. […]

relative SPR binding response, C1r-CUB1 (10 µM Futhan)	relative SPR binding response, C1r-CUB1 (500 µM compound)	SMILES
very little binding response		N=C(N)c1ccc2cc(OC(=O)c3ccc(N=C(N)N)cc3)ccc2c1 [Futhan, reference compound]
	bound weakly	CN(C)c1cc(N2CCCC(N)C2)ncn1 (stereo not drawn) [CMP-1611]
	low binding	COCc1nc(-c2ccc(OC3CNC3)cc2)no1 [CMP-1696]
